Measurements as given in patent US8609650B2, “Bridged bicyclic aryl and bridged bicyclic heteroaryl substituted triazoles useful as Axl inhibitors” (Rigel Pharmaceuticals, Inc., priority 2006, dated 2013).

target: T1, Axl (Homo sapiens, UniProt P30530); test: Phospho-Akt In-Cell Western Assay (ability to inhibit Axl activity); assay type: cell-based; conditions: Hela cells, stimulated by Axl-antibody cross-linking, phospho-Akt chemiluminescence normalized to relative cell number
T1 construct: endogenous in cells; host or cells: HeLa cells
T1 sequence (P30530 26-894): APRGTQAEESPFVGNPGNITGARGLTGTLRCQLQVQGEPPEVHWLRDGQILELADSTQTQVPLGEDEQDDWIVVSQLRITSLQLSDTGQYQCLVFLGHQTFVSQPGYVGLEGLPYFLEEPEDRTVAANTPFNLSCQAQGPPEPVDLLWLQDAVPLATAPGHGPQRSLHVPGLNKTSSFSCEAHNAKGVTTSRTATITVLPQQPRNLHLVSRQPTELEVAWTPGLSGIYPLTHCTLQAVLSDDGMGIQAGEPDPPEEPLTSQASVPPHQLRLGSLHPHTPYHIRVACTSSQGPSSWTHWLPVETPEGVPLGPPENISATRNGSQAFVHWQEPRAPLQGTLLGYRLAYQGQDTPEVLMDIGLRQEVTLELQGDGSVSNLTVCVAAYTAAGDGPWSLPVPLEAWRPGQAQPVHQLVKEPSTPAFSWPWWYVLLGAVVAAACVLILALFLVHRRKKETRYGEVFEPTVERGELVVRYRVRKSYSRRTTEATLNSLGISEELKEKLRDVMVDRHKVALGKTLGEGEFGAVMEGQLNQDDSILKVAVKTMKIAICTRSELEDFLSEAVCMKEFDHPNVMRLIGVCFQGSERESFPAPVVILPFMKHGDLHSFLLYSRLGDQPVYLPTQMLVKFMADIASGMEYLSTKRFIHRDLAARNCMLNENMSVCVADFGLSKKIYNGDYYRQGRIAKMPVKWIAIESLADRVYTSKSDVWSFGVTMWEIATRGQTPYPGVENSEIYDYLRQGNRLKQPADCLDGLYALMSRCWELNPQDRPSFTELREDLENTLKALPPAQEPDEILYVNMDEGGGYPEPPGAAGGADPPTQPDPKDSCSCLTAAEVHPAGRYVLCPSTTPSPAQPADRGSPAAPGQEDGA
Procedure: The compounds of the invention were tested in the following assay for their ability to inhibit Axl activity.
Phospho-Akt In-Cell Western Assay
• Cell culture plate: 96 well assay plate (Corning 3610), white, clear bottom, tissue-culture treated. • Cells: Hela cells. • Starvation medium: For Axl stimulation: 0.5% FCS (fetal calf serum) in DMEM, plus Axl/Fc (extracellular domain of AXL fused to immunoglobulin Fc region) (R&D, 154-AL) 500 ng/mL. • For EGF (epidermal growth factor) stimulation: 0.5% FCS in DMEM (Dulbecco's modified Eagles medium). • Poly-L-Lysine 0.01% solution (the working solution): 10 μg/ml, dilute In PBS (phosphate buffered saline). • Axl antibody cross-linking: • 1st: Mouse anti-Axl (R&D, MAB154). • 2nd: Biotin-SP-conjugated AffiniPure goat anti-mouse IgG (H+L) (Jackson ImmunoResearch #115-065-003). • Fixing buffer: 4% formaldehyde in PBS. • Wash buffer: 0.1% TritonX-100 in PBS. • Quenching buffer: 3% H2O2, 0.1% Azide in wash buffer, Azide and hydrogen peroxide (H2O2) are added fresh. • Blocking buffer: 5% BSA in TBST (tris buffered saline plus 0.1% Tween 20). • Primary antibody: Rabbit anti-human Phospho-Akt antibody (Cell Signaling 9271): 1×250 diluted in blocking buffer. • Secondary antibody: HRP (horse radish peroxidase)-conjugated Goat anti-Rabbit secondary, stock solution: Jackson ImmunoResearch (Goat anti-Rabbit HRP, #111-035-144) 1:1 diluted in glycerol, store at −20° C. The working solution: 1×2000 dilution of stock in blocking buffer. • Chemiluminescent working solution (Pierce, 37030): SuperSignal ELISA (enzyme linked immunosorbant assay) Pico Chemiluminescent substrate. • Crystal Violet solution: Stock: 2.5% Crystal violet in methanol, filtered and kept at ambient temperature. The working solution: dilute the stock 1:20 with PBS immediately before use. • 10% SDS: working solution: 5% SDS (sodium dodecylsulfate), diluted in PBS Methods: Day 1:
A 96 well TC (tissue culture treated) plate was coated with 10 μg/mL poly-L-Lysine at 37° C. for 30 min, washed twice with PBS, and air-dried for 5 minutes before cells were added. Hela cells were seeded at 10,000 cells/well and the cells were starved in 100 μL starvation medium containing Axl/Fc for 24 hrs.
The cells were pre-treated with test compounds by adding 100 μL of 2× test compound to the starvation medium on the cells. The cells were incubated at 37° C. for 1 hr before stimulation.
The cells were stimulated by Axl-antibody cross-linking as follows: A 5×1st/2nd Axl antibody mixture was made (37.5 μg/mL 1st/100 μg/mL 2nd) in starvation medium and nutated at 4° C. with thorough mixing for 1-2 hours for clustering. The resulting mix was warmed to 37° C. 50 μL of 5× Axl 1st/2nd of antibody cluster was added to the cells and the cells were incubated at 37° C. for 5 min.
After 5 minutes stimulation, the plate was flicked to remove medium and the plate was tapped onto paper towels. Formaldehyde (4.0% in PBS, 100 μL) was added to fix the cells and the cells were incubated at ambient temperature for 20 min without shaking.
The cells were washed with a plate washer buffer to remove the formaldehyde solution. The plate was flicked to removed excess wash buffer and tapped onto paper towels. Quenching buffer (100 μL) was added to each well and the cells were incubated at ambient temperature for 20 minutes without shaking.
The cells were washed with a plate washer buffer to remove the quenching buffer. Blocking buffer (100 μL) was added and the cells were incubated at ambient temperature for at least an hour with gentle shaking.
The cells were washed with a plate washer buffer and diluted primary antibody (50 μL) was added to each well (blocking buffer was added to the negative control wells instead). The plates were incubated overnight at 4° C. with gentle shaking.
The wash buffer was removed, diluted secondary antibody (100 μL) was added, and the cells were incubated at ambient temperature for 1 hour with gentle shaking. […]

Row | SMILES | IC50 [nM]
1 | Nc1nc(Nc2ccc(N3CCN(C4CC5CCC4C5)CC3)c(F)c2)nn1-c1cc(-c2ccccc2)c2c(n1)C1CCN2CC1 (stereo not shown) [Compound 36, 1-(1,4-ethano-8-phenyl-1,2,3,4-tetrahydro-1,5-naphthyridin-6-yl)-N^3-(3-fluoro-4-(4-bicyclo[2.2.1]heptan-2-ylpiperazin-1-yl)phenyl)-1H-1,2,4-triazole-3,5-diamine] | < 1000
2 | CN1CCN(c2ccc(Nc3nc(N)n(-c4ccc5c(n4)[C@@H]4C[C@H](C5)C4(C)C)n3)cc2)CC1 [Compound 38, 1-(7,7-dimethyl-(6R,8R)6,8-methano-5,6,7,8-tetrahydroquinoline-2-yl)-N^3-(4-(4-methylpiperazin-1-yl)phenyl)-1H-1,2,4-triazole-3,5-diamine] | < 1000
3 | CC1(C)[C@H]2Cc3ccc(-n4nc(Nc5ccc(N6CCN(C7CC8CCC7C8)CC6)c(F)c5)nc4N)nc3[C@@H]1C2 (stereo partly drawn) [Compound 39, 1-(7,7-dimethyl-(6R,8R)6,8-methano-5,6,7,8-tetrahydroquinoline-2-yl)-N^3-(3-fluoro-4-(4-bicyclo[2.2.1]heptan-2-ylpiperazin-1-yl)phenyl)-1H-1,2,4-triazole-3,5-diamine] | > 20000
4 | CN1CCN(C2CCN(c3ccc(Nc4nc(N)n(-c5cc(-c6ccccc6)c6c(n5)C5CCN6CC5)n4)cc3F)CC2)CC1 [Compound 41, 1-(1,4-ethano-8-phenyl-1,2,3,4-tetrahydro-1,5-naphthyridin-6-yl)-N^3-(3-fluoro-4-(4-(4-methylpiperazin-1-yl)piperidin-1-yl)phenyl)-1H-1,2,4-triazole-3,5-diamine] | < 1000
5 | CN1CCN(c2ccc(Nc3nc(N)n(-c4nnc(-c5ccccc5)c5c4C4CCC5C4)n3)cc2)CC1 (stereo not shown) [Compound 42, 1-(5,8-methano-1-phenyl-5,6,7,8-tetrahydrophthalazine-4-yl)-N^3-(4-(4-methylpiperazin-1-yl)phenyl)-1H-1,2,4-triazole-3,5-diamine] | < 1000
6 | CN1CCN(c2ccc(Nc3nc(N)n(-c4cc(-c5ccccc5)c5c(n4)C4CCC5C4)n3)cc2)CC1 (stereo not shown) [Compound 45, 1-(5,8-methano-4-phenyl-5,6,7,8-tetrahydroquinoline-2-yl)-N^3-(4-(4-methylpiperazin-1-yl)phenyl)-1H-1,2,4-triazole-3,5-diamine] | < 1000

Other lines, results leading:

Row | IC50 [nM] | SMILES
7 | < 1000 | Nc1nc(Nc2ccc(N3CCN(C4CCCCC4)CC3)c(F)c2)nn1-c1cc(-c2ccccc2)c2c(n1)C1CCN2CC1 [Compound 37, 1-(1,4-ethano-8-phenyl-1,2,3,4-tetrahydro-1,5-naphthyridin-6-yl)-N^3-(3-fluoro-4-(4-cyclohexylpiperazin-1-yl)phenyl)-1H-1,2,4-triazole-3,5-diamine]
8 | < 1000 | Nc1nc(Nc2ccc(N3CCC(N4CCCC4)CC3)c(F)c2)nn1-c1nnc(-c2ccccc2)c2c1C1CCC2C1 (stereo not shown) [Compound 40, 1-(5,8-methano-1-phenyl-5,6,7,8-tetrahydrophthalazine-4-yl)-N^3-(3-fluoro-4-(4-(pyrrolidin-1-yl)piperidin-1-yl)phenyl)-1H-1,2,4-triazole-3,5-diamine]
9 | < 1000 | Nc1nc(Nc2ccc(N3CCC(N4CCCC4)CC3)c(F)c2)nn1-c1cc(-c2ccccc2)c2c(n1)C1CCC2C1 (stereo not shown) [Compound 43, 1-(5,8-methano-4-phenyl-5,6,7,8-tetrahydroquinoline-2-yl)-N^3-(3-fluoro-4-(4-(pyrrolidin-1-yl)piperidin-1-yl)phenyl)-1H-1,2,4-triazole-3,5-diamine]
10 | 1000 to 10000 | Nc1nc(Nc2ccc(N3CCN(C4CCCCC4)CC3)c(F)c2)nn1-c1cc(-c2ccccc2)c2c(n1)C1CCC2C1 (stereo not shown) [Compound 44, 1-(5,8-methano-4-phenyl-5,6,7,8-tetrahydroquinoline-2-yl)-N^3-(3-fluoro-4-(4-cyclohexylpiperazin-1-yl)phenyl)-1H-1,2,4-triazole-3,5-diamine]
